In brackets after ≈: the same amount, converted by molar mass.
Columns and labels:
[1] = DPPH radical scavenging assay; conditions: 30 min in the dark, absorbance 517 nm; mean ± SD, triplicates
Procedure: In-vitro antioxidant potential of the different extracts of B. pacumbis was assessed by 1,1-diphenyl 1–2-picryl-hydrazyl (DPPH) assay accordingly with Jha et al.. One milliliter of plant extract of different concentrations was added in 3 mL of the DPPH solution ([…]) and incubated for 30 min in the dark. Absorbance was measured at the wavelength (λ) = 517 nm in a UV-visible spectrophotometer (UV-1800, SHIMADZU). Gallic acid and methanolic DPPH were used as reference and positive control respectively.

[2] = ABTS radical scavenging assay; conditions: 10 min in the dark, absorbance 720 nm; mean ± SD, triplicates
Procedure: In-vitro 2, 2′-azino-bis (3-ethylbenzothiazoline-6-sulphonic acid) (ABTS) scavenging assay was performed as by Liyanaarachchi et al.. An aliquot of 1 mL of plant extract of varying concentrations was mixed with 3 mL of ABTS working solution and incubated for 10 min in the dark and the decrease in absorbance was recorded at λ = 720 nm in a UV-visible spectrophotometer. Gallic acid and 50% methanol were used as reference and positive control respectively.

Question: Which “IC50 Value DPPH” value [1] does the source give for O=C(O)c1cc(O)c(O)c(O)c1 [Gallic Acid] here?
Answer: The value was 5.12 ± 0.12 µg/mL (≈ 30.1 µM).

Question: And the “IC50 Value ABTS” value [2]?
Answer: The value was 1.96 ± 0.05 µg/mL (≈ 11.5 µM).
